Data taken from patent publication EP0851862B1, “1(HETERO)ARYL-4-(CONDENSED THIAZOL-2-YLALKYL)-PIPERAZINE DERIVATIVES, THEIR PREPARATION AND THEIR USE IN THE TREATMENT OF 5-HT1A-RECEPTOR MEDIATED DISORDERS” (Pharmacia Italia S.p.A., priority 1995, dated 1997).
Counter-ions that a name gives are not always drawn.

Experiments:
α2 = experiment: receptor binding profile, α2; settings: read-out: α2 Affinity is expressed as IC50
5-HT1A receptor sites = biological target: T1, 5-HT1A receptor sites (Rattus norvegicus, UniProt P19327); experiment: receptor binding profile, 5-HT1A; settings: read-out: 5-HT1A Affinity is expressed as IC50
T1 sequence (P19327 1-422): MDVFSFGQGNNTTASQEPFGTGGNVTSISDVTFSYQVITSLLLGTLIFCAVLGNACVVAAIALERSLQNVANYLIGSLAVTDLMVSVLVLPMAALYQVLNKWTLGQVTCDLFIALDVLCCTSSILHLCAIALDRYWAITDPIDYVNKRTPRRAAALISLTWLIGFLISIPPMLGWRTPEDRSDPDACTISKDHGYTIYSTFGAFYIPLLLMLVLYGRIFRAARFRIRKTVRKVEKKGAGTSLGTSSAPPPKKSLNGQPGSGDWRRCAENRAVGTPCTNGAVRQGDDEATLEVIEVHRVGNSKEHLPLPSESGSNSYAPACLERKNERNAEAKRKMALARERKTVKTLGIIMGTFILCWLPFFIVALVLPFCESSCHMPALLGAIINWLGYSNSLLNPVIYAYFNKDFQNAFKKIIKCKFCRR
From the text: The affinity of the compounds of the present invention towards 5-HT1A receptor sites can be assessed by evaluating the binding profile of the compounds of formula (I).

D1 = D1 (Rattus norvegicus, UniProt P18901); experiment: receptor binding profile, D1; settings: read-out: D1 Affinity is expressed as IC50
D2 = D2 (Rattus norvegicus, UniProt P61169); experiment: receptor binding profile, D2; settings: read-out: D2 Affinity is expressed as IC50
α1 = experiment: receptor binding profile, α1; settings: read-out: α1 Affinity is expressed as IC50
5-HT2 = 5-HT2 (Rattus norvegicus, UniProt P14842); experiment: receptor binding profile, 5-HT2; settings: read-out: 5-HT2 Affinity is expressed as IC50
5-HT2, sequence (P14842 whole entry): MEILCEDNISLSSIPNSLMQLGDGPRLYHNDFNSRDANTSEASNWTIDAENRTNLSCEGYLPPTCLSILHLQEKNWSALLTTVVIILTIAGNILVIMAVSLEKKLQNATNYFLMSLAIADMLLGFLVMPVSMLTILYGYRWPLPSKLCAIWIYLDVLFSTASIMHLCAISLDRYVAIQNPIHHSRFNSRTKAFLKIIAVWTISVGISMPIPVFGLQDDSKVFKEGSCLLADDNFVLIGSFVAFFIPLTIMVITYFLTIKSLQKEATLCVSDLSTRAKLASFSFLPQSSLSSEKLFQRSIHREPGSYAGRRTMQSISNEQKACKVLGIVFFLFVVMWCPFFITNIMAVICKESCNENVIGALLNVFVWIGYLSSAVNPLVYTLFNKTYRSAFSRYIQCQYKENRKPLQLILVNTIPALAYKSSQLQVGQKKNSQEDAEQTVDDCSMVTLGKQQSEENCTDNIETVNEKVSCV

D1, sequence (P18901 whole entry): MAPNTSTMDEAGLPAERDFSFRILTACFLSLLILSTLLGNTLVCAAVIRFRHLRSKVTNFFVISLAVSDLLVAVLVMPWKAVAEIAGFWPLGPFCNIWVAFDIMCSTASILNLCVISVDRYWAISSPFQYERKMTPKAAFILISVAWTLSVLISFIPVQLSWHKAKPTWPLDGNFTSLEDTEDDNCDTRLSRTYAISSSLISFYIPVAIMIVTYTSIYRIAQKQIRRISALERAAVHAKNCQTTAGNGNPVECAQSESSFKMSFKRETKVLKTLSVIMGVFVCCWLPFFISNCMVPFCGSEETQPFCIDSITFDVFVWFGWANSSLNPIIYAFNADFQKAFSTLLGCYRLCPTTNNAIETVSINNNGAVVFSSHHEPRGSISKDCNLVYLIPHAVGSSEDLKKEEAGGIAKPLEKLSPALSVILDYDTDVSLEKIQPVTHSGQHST
D2, sequence (P61169 whole entry): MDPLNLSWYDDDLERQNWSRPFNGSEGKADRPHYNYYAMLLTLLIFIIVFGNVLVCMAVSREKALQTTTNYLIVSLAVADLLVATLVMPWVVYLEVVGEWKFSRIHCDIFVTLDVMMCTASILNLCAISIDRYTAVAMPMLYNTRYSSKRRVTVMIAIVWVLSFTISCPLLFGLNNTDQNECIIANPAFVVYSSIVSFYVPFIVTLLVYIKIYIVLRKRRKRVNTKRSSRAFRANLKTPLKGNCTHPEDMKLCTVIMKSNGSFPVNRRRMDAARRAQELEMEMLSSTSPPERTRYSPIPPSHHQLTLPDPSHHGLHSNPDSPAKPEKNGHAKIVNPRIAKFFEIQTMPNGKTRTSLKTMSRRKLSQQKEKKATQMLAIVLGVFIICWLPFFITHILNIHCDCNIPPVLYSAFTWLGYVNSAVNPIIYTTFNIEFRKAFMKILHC

| Compound | IC50 (α2) [nM] | IC50 (5-HT1A receptor sites) [nM] | IC50 (D1) [nM] | IC50 (D2) [nM] | IC50 (α1) [nM] | IC50 (5-HT2) [nM] |
| --- | --- | --- | --- | --- | --- | --- |
| 5-Methoxy-2-[4-(4-phenyl-piperazin-1-yl)-butyl]-4,5-dihydro-naphtho[1,2-d]thiazole hydrochloride [(11)] | 18 | 10 | 1770 | 24 | 52 | 66 |
| 5-Methoxy-2-{4-[4-(2-methoxy-phenyl)-piperazin-1-yl]-butyl}-4,5-dihydro-naphtho[1,2-d]thiazole hydrochloride [(13)] | 46 | 3.7 |  | 8 | 35 | 240 |
| 5-Methoxy-2-{4-[4-(2-pyridyl)-piperazin-1-yl]-butyl}-4,5-dihydro-naphtho[1,2-d]thiazole hydrochloride [(12)] | 390 | 8.2 | 1490 | 61 | 190 | 82 |
| 6-Methoxy-2-[4-(4-phenyl-piperazin-1-yl)-butyl]-4,5-dihydro-naphtho[1,2-d]thiazole hydrochloride [(10)] | 3770 | 400 | > 10000 | 680 | 1140 | 3180 |
| 6-Methoxy-2-{4-(4-(2-methoxy-phenyl)-piperazin-1-yl]-butyl}-4,5-dihydro-naphtho[1,2-d]thiazole hydrochloride [(1)] | 92 | 3.2 | 590 | 20 | 52 | 250 |
| 7-Methoxy-2-[4-(4-phenyl-piperazin-1-yl)-butyl]-4,5-dihydro-naphtho[1,2-d]thiazole hydrochloride [(7)] | 500 | 12 | 1180 | 25 | 49 | 870 |
| 7-Methoxy-2-{4-[4-(2-methoxy-phenyl)-piperazin-1-yl]-butyl}-4,5-dihydro-naphtho[1,2-d]thiazole hydrochloride [(8)] | 380 | 7 | 1610 | 150 | 200 | 720 |
| 7-Methoxy-2-{4-[4-(2-pyridyl)-piperazin-1-yl]-butyl}-4,5-dihydro-naphtho[1,2-d]thiazole hydrochloride [(9)] | 20 | 4.1 | 430 | 11 | 58 | 55 |
| c1ccc(N2CCN(Cc3nc4c(s3)CCc3ccccc3-4)CC2)cc1 [(2), 2-[(4-phenyl-piperazin-1-yl)-methyl]-4,5 dihydronaphtho[1,2-d]thiazole hydrocloride] | 300 | 42 |  |  | 130 | 300 |
| c1ccc(N2CCN(CCc3nc4c(s3)CCc3ccccc3-4)CC2)cc1 [(3)] | 160 | 170 |  |  | 110 | 63 |
| c1ccc(N2CCN(CCCc3nc4c(s3)CCc3ccccc3-4)CC2)cc1 [(4), 2-[3-(4-phenyl-piperazin-1-yl)-propyl]-4,5-dihydronaphtho[1,2-d]thiazole hydrocloride] | 110 | 69 |  |  | 120 | 280 |
| c1ccc(N2CCN(CCCCc3nc4c(s3)CCc3ccccc3-4)CC2)cc1 [(5), 2-[4-(4-phenyl-piperazin-1-yl)-butyl]-4,5-dihydronaphtho[1,2-d]thiazole hydrocloride] | 260 | 67 |  |  | 170 | 66 |
| COc1ccc2c(c1)CCc1sc(CCCN3CCN(c4ccccc4OC)CC3)nc1-2 [(6), 7-Methoxy-2-{3-[4-(2-methoxy-phenyl) -piperazin-1-yl]-propyl}-4,5-dihydro-naphtho[1,2-d]thiazole hydrochloride] | 160 |  |  |  | 90 |  |
